# Measurements taken from US11192849B2, “Compounds, compositions, and methods for modulating ferroptosis and treating excitotoxic disorders” (THE TRUSTEES OF COLUMBIA UNIVERSITY IN THE CITY OF NEW YORK, priority 2013, dated 2021).
# Key:
# [1] = system: freshly isolated renal tubules; experiment: LDH release from hypoxic freshly isolated renal tubules; assay type: cell-based, mouse; details: Nec-1 50 μM, with or without glycine
# Protocol: Six to 12 mice were used for each isolated tubule preparation, depending on the amount of material needed for particular experiments. For preparation of isolated tubules, mice were anesthetized with ketamine (100 mg/kg i.p.) and xylazine (10 mg/kg i.p.), and the kidneys were immediately removed. Type I collagenase was from Worthington Biochemical. Percoll was purchased from Amersham Biosciences. All other reagents and chemicals, including delipidated BSA, were of the highest grade available from Sigma-Aldrich. […] The cortices were then dissected and minced on an ice-cold tile and then resuspended in additional solution A for 8-10 min of digestion at 37° C., followed by enrichment of proximal tubules using centrifugation on self-forming Percoll gradients. For Nec-1 studies in renal tubules, renal cortices were dissected in ice-cold dissection solution (DS) [HBSS with 10 mmol/L glucose, 5 mmol/L glycine, 1 mmol/L alanine, 15 mmol/L Hepes (pH 7.4); osmolality, 325 mOsmol/L] and sliced into 1-mm pieces. The fragments were transferred to collagenase solution (DS with 0.1% (wt/vol) type 2 collagenase and 96 μg/mL soybean trypsin inhibitor) and digested for 30 min at 37° C. and 61×g. After digestion, the supernatant was sieved through two nylon sieves: first 250-μm pore size and then 100-μm pore size. […]
# [2] = system: mouse kidney proximal tubules; experiment: Hydroxyquinoline + iron induced cell death in isolated mouse kidney proximal tubules (LDH release); assay type: cell-based; details: 10 μM hydroxyquinoline and ferrous ammonium sulfate, 60 min
# Protocol: Tubule preparation: 8-12 week old C57/BL6 female mice were euthanized with isoflurane. […] The cortices were then dissected and minced on an ice cold tile, then resuspended in additional Solution A for 8-10 min. of digestion at 37° C. followed by enrichment of proximal tubules using centrifugation on self-forming Percoll gradients as previously described for rabbit tubules.
# Experimental procedures for isolated tubules: Tubules were suspended at 1.5-2.0 mg tubule protein/ml in a 95% air/5% CO2-gassed medium containing (in mM) 110 NaCl, 2.6 KCl, 25 NaHCO3, 2.4 KH2PO4, 1.25 CaCl2, 1.2 MgCl2, 1.2 MgSO4, 5 glucose, 4 sodium lactate, 0.3 alanine, 5 sodium butyrate, 2 glycine, and 1.0 mg/ml bovine gelatin (75 bloom) (Solution B). After precincubation for 15 min. at 37° C., then were then resuspended in fresh Solution B containing 2 mM heptanoic acid instead of sodium butyrate along with experimental compounds.
# In addition, the efficacy of Fer-1, SRS11-92, and selected analogs was tested in a model of iron-induced cell death in freshly isolated mouse kidney proximal tubules that simulates major elements of rhabdomyolysis-induced acute kidney injury (FIG. 15C). Cell death in this model is known to involve oxidative lipid damage (Sogabe, et al., 1996, Park, et al., 2011); it was therefore believed that Fer-1 might be protective. 10 μM each of hydroxyquinoline and ferrous ammonium sulfate (HQ+Fe) were used to induce cell death, which was quantified by monitoring LDH release after 60 min. […] By implication, cell death in these models may involve, at least in part, the induction of lipid peroxidation and perhaps ferroptosis.
# [3] = system: HT-1080, BJeLR and Calu-1 cells; experiment: Modulatory profiling of cell death inhibitors against erastin; assay type: cell-based, human; details: erastin 10 μM, 24 hours; 10-point, 4-fold dilution series
# Protocol: The day before the experiment, cells were seeded in black, 384-well clear bottom plates (Corning) at a density of 1,000 cells/well using a Beckman Biomek FX Workstation. All compounds (except 3-methyladenine and chloroquine, which were diluted in water) were diluted in DMSO at 250 times the final highest test concentration, and aliquoted across a 384-well plate (Greiner, Monroe, N.C.). A ten-point, 4-fold dilution series of each inhibitor in DMSO was made using a multichannel pipette. Replicates of this mother plate were stored at −20° C. […] Medium was removed from cells and replaced with 36 μL medium containing DMSO (0.1%) or erastin (10 μM final concentration). Using the Biomek FX, 4 μL were then transferred from each inhibitor daughter plate into the DMSO-containing or erastin-containing assay plates. For 3-methyladenine and chloroquine, inhibitors were prepared fresh in media at 10-fold the final concentration in the presence of DMSO or 10 μM erastin. These solutions were manually pipetted onto cells in 384-well format. Assay plates were incubated at 37° C. for 24 hours. Viability was assessed using Alamar Blue.
# The modulatory effect (Me) for drug-drug interactions was computed as follows. First, plate-based background correction was performed using Alamar Blue values from empty (cell-free) wells included on each plate. Next, within each experiment, 100% viability is determined as the average Alamar Blue score for cells treated with modulator=DMSO and lethal=DMSO, and all Alamar Blue values were scaled from 0 to 1 with the DMSO×DMSO condition=1. The individual effects of each modulator and lethal (e.g. in the presence of DMSO) at all tested doses were then ascertained. […] Next, BExp was compared to the actual observed viability. […] By default, Me in DMSO-treated cells is equal to 0. […] Me values for each inhibitor-lethal drug combination were hierarchically clustered and plotted as a heatmap using the heatmaps.2 function of the gplots library in R.
structure (smiles),measurement,setting,value
CN1C(=O)C(Cc2c[nH]c3ccccc23)NC1=S (stereo not drawn) [necrostatin-1],LDH release from hypoxic renal tubules,[1],no protection was detected
same,HQ+Fe induced lethality (LDH release),[2],did not show any protection
same,modulation of erastin-induced death,[3],not consistently modulated
